Reference: ChEMBL document CHEMBL1201862, “PubChem BioAssay data set” (2004)
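96-well plates; 48 h exposure; 5 concentrations. Endpoints by linear interpolation between flanking doses. Not reached: highest tested concentration assigned. GI50 is the concentration that inhibits growth by half.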 Active and inactive are the calls of the source. Cut-off read from the data, not from the text of the source: active = GI50 up to about 1.1 µM and inactive = higher.

Experiments:
Experiment in all cases: DTP human tumour cell line panel, 48 h
HL-60 = test system: HL-60
TK-10 = test system: TK-10
OVCAR-5 = test system: OVCAR-5
SF-295 = test system: SF-295
RPMI-8226 = test system: RPMI-8226
SW-620 = test system: SW-620
NCI-H23 = test system: NCI-H23
COLO 205 = test system: COLO 205
HOP-62 = test system: HOP-62
SK-MEL-2 = test system: SK-MEL-2
A549 = test system: A549
HCT-15 = test system: HCT-15
ACHN = test system: ACHN
IGROV-1 = test system: IGROV-1
UACC-257 = test system: UACC-257
HCT-116 = test system: HCT-116
OVCAR-3 = test system: OVCAR-3
OVCAR-8 = test system: OVCAR-8
Malme-3M = test system: Malme-3M
MCF7 = test system: MCF7

| SMILES | GI50 (HL-60) | GI50 (TK-10) | GI50 (OVCAR-5) | GI50 (SF-295) | GI50 (RPMI-8226) | GI50 (SW-620) | GI50 (NCI-H23) | GI50 (COLO 205) | GI50 (HOP-62) | GI50 (SK-MEL-2) | GI50 (A549) | GI50 (HCT-15) [µM] | GI50 (ACHN) | GI50 (IGROV-1) | GI50 (UACC-257) | GI50 (HCT-116) | GI50 (OVCAR-3) | GI50 (OVCAR-8) | GI50 (Malme-3M) | GI50 (MCF7) |
| --- | --- | --- | --- | --- | --- | --- | --- | --- | --- | --- | --- | --- | --- | --- | --- | --- | --- | --- | --- | --- |
| O=C1c2cc3c(cc2CC1Cc1ccc2c(c1)CCC2)CCC3 (centres undefined) | 66.2 µM (inactive) | > 100 µM (inactive) | > 100 µM (inactive) | 23.5 µM (inactive) | 40.5 µM (inactive) | 45.5 µM (inactive) | 44.7 µM (inactive) | 25 µM (inactive) | 72.4 µM (inactive) | 48.8 µM (inactive) | 64.4 µM (inactive) | 47.5 | 48.4 µM (inactive) | 31.6 µM (inactive) | 87.7 µM (inactive) | 38.6 µM (inactive) | 63.4 µM (inactive) | 81.7 µM (inactive) | 79.6 µM (inactive) | 93.1 µM (inactive) |
| CCOC(=O)C(O)(NC(=O)c1ccccc1F)C(F)(F)F (centres undefined) | > 100 µM (inactive) | > 100 µM (inactive) | > 100 µM (inactive) | > 100 µM (inactive) | > 100 µM (inactive) | > 100 µM (inactive) | > 100 µM (inactive) | > 100 µM (inactive) | > 100 µM (inactive) | > 100 µM (inactive) | > 100 µM (inactive) | > 100 | > 100 µM (inactive) | 84.5 µM (inactive) | > 100 µM (inactive) | > 100 µM (inactive) | > 100 µM (inactive) | > 100 µM (inactive) | > 100 µM (inactive) | > 100 µM (inactive) |
| Oc1nc2ccccc2c2oc3ccccc3c12 | – | > 100 µM (inactive) | – | > 100 µM (inactive) | – | > 100 µM (inactive) | > 100 µM (inactive) | > 100 µM (inactive) | 88.9 µM (inactive) | – | > 100 µM (inactive) | > 100 | > 100 µM (inactive) | > 100 µM (inactive) | > 100 µM (inactive) | – | > 100 µM (inactive) | > 100 µM (inactive) | > 100 µM (inactive) | > 100 µM (inactive) |
| COc1ccc(C(=O)C2CC3(CCC2(O)c2ccc(OC)cc2)CC(=O)Nc2ccccc2C3=O)cc1 (centres undefined) | 5.08 µM (inactive) | > 100 µM (inactive) | > 100 µM (inactive) | > 100 µM (inactive) | – | > 100 µM (inactive) | > 100 µM (inactive) | 11.7 µM (inactive) | > 100 µM (inactive) | > 100 µM (inactive) | > 100 µM (inactive) | 5.85 | – | > 100 µM (inactive) | > 100 µM (inactive) | 28.4 µM (inactive) | > 100 µM (inactive) | > 100 µM (inactive) | > 100 µM (inactive) | 3.03 µM (inactive) |
| COc1cc(C2c3cc4c(cc3[C@@H](Nc3ccc(Oc5ccccc5)cc3)C3COC(=O)[C@H]23)OCO4)cc(OC)c1O (some centres undefined) | 0.362 µM (active) | – | > 61 µM (inactive) | 1.27 µM (inactive) | 1.08 µM (active) | 2.07 µM (inactive) | 1.12 µM (inactive) | 1.5 µM (inactive) | 0.851 µM (active) | > 29.9 µM (inactive) | 0.916 µM (active) | 1.3 | – | 4.38 µM (inactive) | 1.22 µM (inactive) | 0.979 µM (active) | > 62.2 µM (inactive) | 4.5 µM (inactive) | 3.7 µM (inactive) | 0.4 µM (active) |
| CCOC(=O)Cc1cnc(NC(NC(=O)CC)(C(F)(F)F)C(F)(F)F)s1 | > 100 µM (inactive) | > 100 µM (inactive) | > 100 µM (inactive) | – | > 100 µM (inactive) | – | > 100 µM (inactive) | – | > 100 µM (inactive) | > 100 µM (inactive) | – | > 100 | > 100 µM (inactive) | – | > 100 µM (inactive) | > 100 µM (inactive) | > 100 µM (inactive) | – | > 100 µM (inactive) | > 100 µM (inactive) |
| COS(=O)c1cc(Cl)cc(Cl)c1O (centres undefined) | > 100 µM (inactive) | > 100 µM (inactive) | > 100 µM (inactive) | – | – | – | > 100 µM (inactive) | – | > 100 µM (inactive) | > 100 µM (inactive) | – | – | > 100 µM (inactive) | – | > 100 µM (inactive) | > 100 µM (inactive) | > 100 µM (inactive) | – | > 100 µM (inactive) | – |
| CCOC(=O)C1=NN(c2ccc(C)cc2)C2=CC(C)=NN(C)C(=S)N21 | > 100 µM (inactive) | 36.1 µM (inactive) | 88.5 µM (inactive) | > 100 µM (inactive) | > 100 µM (inactive) | 54.2 µM (inactive) | 30.1 µM (inactive) | > 100 µM (inactive) | – | > 100 µM (inactive) | 70.6 µM (inactive) | > 100 | 43.5 µM (inactive) | > 100 µM (inactive) | > 100 µM (inactive) | 31.1 µM (inactive) | 60 µM (inactive) | 42.9 µM (inactive) | – | > 10 µM (inactive) |
